# Experimental data taken from paper PMC7044277 (Nature Communications, 2020).
# “And” between values parts separate entries of the source, which are not always exact repeats. Equal values may be shown once.
# Experiments:
# [1] = test system: serotonin receptor of Fig_S10h (subtype not given); assay: β-arrestin2 recruitment (Tango), agonist activity, source data Fig_S10h; assay type: cell-based, human; conditions: drug alone
# [2] = test system: serotonin receptor (subtype not given; reference agonist serotonin); assay: β-arrestin2 recruitment (Tango), agonist activity, source data Fig_S10l; assay type: cell-based, human; conditions: drug alone
# 5HT1E = 5HT1E (Homo sapiens, UniProt P28566); assay: β-arrestin2 recruitment (Tango); assay type: cell-based; conditions: Fig_S10i
# Chain of 5HT1E (P28566 whole entry): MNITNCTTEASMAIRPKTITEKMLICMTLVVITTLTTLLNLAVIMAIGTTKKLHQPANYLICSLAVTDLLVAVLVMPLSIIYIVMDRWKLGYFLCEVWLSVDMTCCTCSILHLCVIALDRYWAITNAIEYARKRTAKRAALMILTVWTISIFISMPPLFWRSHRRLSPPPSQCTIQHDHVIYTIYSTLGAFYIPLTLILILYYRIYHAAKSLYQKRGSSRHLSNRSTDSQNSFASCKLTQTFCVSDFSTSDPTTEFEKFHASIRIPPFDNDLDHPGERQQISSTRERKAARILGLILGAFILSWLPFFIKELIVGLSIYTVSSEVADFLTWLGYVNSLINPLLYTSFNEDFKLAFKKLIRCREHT
compound,measurement,setting,value
NCCc1c[nH]c2ccc(O)cc12 [serotonin],"response, single replicates of the concentration-response curve",[1]; Log[Drug] -6.52,12.0291 and 19.5952
same,"response, single replicates of the concentration-response curve",[1]; Log[Drug] -7,2.6011 and -1.075 and 3.048 and 4.334 and 32.5585 and -0.4363 and 18.2842 and -0.3304 and 3.805
same,"response, single replicates of the concentration-response curve",[1]; Log[Drug] -7.52,-5.305 and -8.997 and -2.862 and 15.7285 and -12.0664 and -2.954 and 4.129 and -0.7381 and 8.911
same,"response, single replicates of the concentration-response curve",[1]; Log[Drug] -8,11.8117 and 29.1299 and 15.6343 and 0.03576 and -18.7755 and 4.449 and 0.1518 and -2.004 and 0.1399
same,"response, single replicates of the concentration-response curve",[1]; Log[Drug] -8.52,12.7881 and -3.85 and 7.621 and -15.471 and -6.659 and -3.791 and 12.564 and 15.564 and 7.72
same,"response, single replicates of the concentration-response curve",[1]; Log[Drug] -9,21.6587 and -10.519 and 17.1443 and 3.469 and -2.646 and 17.2305 and 22.0208 and 9.871 and -3.368
same,"response, single replicates of the concentration-response curve",[1]; Log[Drug] -9.52,-18.3856 and 11.0725 and -0.8301 and -0.6294 and 19.1689 and -9.835 and 1.3631 and 4.138 and -4.946
same,"response, single replicates of the concentration-response curve",[1]; Log[Drug] -10,3.467 and 11.9303 and -16.5277 and -15.8143 and 26.0782 and 5.9867 and -1.32 and 21.2827 and -2.198
same,"response, single replicates of the concentration-response curve",[1]; Log[Drug] -10.52,-7.491 and 8.349 and -14.563 and -13.4182 and -6.602 and -12.1379 and 3.417 and 10.9077 and 6.354
same,"response, single replicates of the concentration-response curve",[1]; Log[Drug] -11,29.0865 and 1.862 and -7.017 and 5.1 and 20.1702 and -18.3463 and 23.1562 and 16.2753 and 2.497
same,"response, single replicates of the concentration-response curve",[1]; Log[Drug] -11.52,-9.416 and 4.206 and 8.815 and -3.0613 and -4.084 and 8.812 and 2.924 and 7.927 and -1.673
same,"response, single replicates of the concentration-response curve",[1]; Log[Drug] -12,14.8397 and -1.032 and -13.808 and 8.962 and 3.855 and 6.222 and -0.3036 and -4.71
same,"response, Fig_S10l, replicate values",[2]; Log[Drug] -6.52,89.1482 and 68.7936 and 58.4442
same,"response, Fig_S10l, replicate values",[2]; Log[Drug] -7,66.8775 and 42.3868 and 35.3098 and 60.5263 and 52.6042 and 58.638 and 24.4765 and 22.6408 and 30.0813
same,"response, Fig_S10l, replicate values",[2]; Log[Drug] -7.52,68.5906 and 51.7176 and 27.5973 and 17.0437 and 36.727 and -5.864 and 8.121 and 12.6341 and 15.0506
same,"response, Fig_S10l, replicate values",[2]; Log[Drug] -8,24.3997 and 25.1743 and 11.0247 and 13.4188 and 3.861 and -8.27 and 5.486 and 9.516 and -0.3454
same,"response, Fig_S10l, replicate values",[2]; Log[Drug] -8.52,28.2691 and 10.8991 and 0.6654 and 20.8515 and 4.218 and 3.753 and -2.601 and -10.3369 and 7.58
same,"response, Fig_S10l, replicate values",[2]; Log[Drug] -9,8.291 and 7.398 and -4.407 and 28.3765 and 10.5666 and -13.7434 and -1.811 and 21.0925 and -2.254
same,"response, Fig_S10l, replicate values",[2]; Log[Drug] -9.52,15.1454 and -8.903 and -7.678 and 11.6014 and -2.921 and -5.371 and 3.959 and 0.2537 and -8.706
same,"response, Fig_S10l, replicate values",[2]; Log[Drug] -10,10.6015 and 17.2844 and 5.47 and 9.7774 and -6.372 and -8.832 and 0.1972 and 15.6666 and 6.603
same,"response, Fig_S10l, replicate values",[2]; Log[Drug] -10.52,14.0658 and 3.099 and 4.084 and 6.9236 and -15.9908 and -3.571 and 14.7648 and -9.016 and -4.897
same,"response, Fig_S10l, replicate values",[2]; Log[Drug] -11,11.925 and 9.507 and -4.609 and 40.988 and 1.279 and -23.0265 and -4.413 and 0.5655 and 2.993
same,"response, Fig_S10l, replicate values",[2]; Log[Drug] -11.52,29.1466 and 5.5415 and 2.1791 and 13.0085 and 1.916 and 6.51 and 8.732 and 12.6601
same,"response, Fig_S10l, replicate values",[2]; Log[Drug] -12,12.8871 and 8.151 and 29.2053 and 0.5174 and 13.376 and 13.9134 and 1.483 and -15.396
same,"β-arrestin2 recruitment response, agonist mode (single replicate values)",5HT1E; Log[Drug] -5.52,108.092 and 78.7034 and 68.0996 and 111.634 and 84.2736 and 51.0795 and 58.1946
same,"β-arrestin2 recruitment response, agonist mode (single replicate values)",5HT1E; Log[Drug] -6,49.7303 and 44.0521 and 69.0964 and 55.0788 and 40.5129 and 63.4469 and 42.3724 and 34.8106
same,"β-arrestin2 recruitment response, agonist mode (single replicate values)",5HT1E; Log[Drug] -6.52,106.224 and 69.1939 and 36.3693 and 81.3314 and 34.6361 and 22.755 and 52.7781 and 32.1336 and 42.1707
same,"β-arrestin2 recruitment response, agonist mode (single replicate values)",5HT1E; Log[Drug] -7,29.3778 and 17.2077 and 21.8054 and 52.9182 and 14.1436 and 22.9549 and 34.3028 and 15.3331 and 17.5442
same,"β-arrestin2 recruitment response, agonist mode (single replicate values)",5HT1E; Log[Drug] -7.52,41.4851 and -6.092 and 11.8176 and 23.4775 and 20.4513 and 6.343 and -1.8765 and -0.1243 and 3.783
same,"β-arrestin2 recruitment response, agonist mode (single replicate values)",5HT1E; Log[Drug] -8,21.7287 and -17.9678 and 1.664 and 16.3198 and 16.2023 and 1.767 and -8.704 and -1.0625 and 5.333
same,"β-arrestin2 recruitment response, agonist mode (single replicate values)",5HT1E; Log[Drug] -8.52,26.6743 and -0.7908 and -7.94 and 18.4011 and -5.808 and -1.038 and -3.241 and -4.6991 and -0.4891
same,"β-arrestin2 recruitment response, agonist mode (single replicate values)",5HT1E; Log[Drug] -9,-13.5816 and -3.11 and -9.22 and 15.9426 and -4.472 and -7.47 and -3.2021 and 8.202 and 2.053
same,"β-arrestin2 recruitment response, agonist mode (single replicate values)",5HT1E; Log[Drug] -9.52,-5.0682 and -13.6215 and 3.951 and -3.374 and 10.856 and -15.4751 and -6.969 and 2.056 and -4.273
same,"β-arrestin2 recruitment response, agonist mode (single replicate values)",5HT1E; Log[Drug] -10,-0.8245 and 7.169 and 4.501 and 15.8236 and -1.758 and 5.793 and -9.018 and 1.66
same,"β-arrestin2 recruitment response, agonist mode (single replicate values)",5HT1E; Log[Drug] -10.52,-1.038 and -22.0751 and -13.8927 and 22.1779 and 3.45 and -2.9 and -5.64 and 8.736
same,"β-arrestin2 recruitment response, agonist mode (single replicate values)",5HT1E; Log[Drug] -11,-16.6513 and -2.431 and 20.3066 and 6.343 and -2.603 and 3.357
